Experimental data reported in PubChem BioAssay (NCI).
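Compound exposure: 48 hours, 5 concentrations, 96-well plates. The concentration for full growth arrest is given as TGI.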

What was measured:
Test in all cases: NCI anticancer screen, dose series, 48 h
A549 NSCLC = tested on: A549 NSCLC
OVCAR-8 ovarian = tested on: OVCAR-8 ovarian
MOLT-4 leukemia = tested on: MOLT-4 leukemia
PC-3 prostate = tested on: PC-3 prostate
MDA-N = tested on: MDA-N
NCI-H23 lung = tested on: NCI-H23 lung
SF-268 CNS = tested on: SF-268 CNS
HCT-15 colon = tested on: HCT-15 colon
MALME-3M melanoma = tested on: MALME-3M melanoma
EKVX NSCLC = tested on: EKVX NSCLC
HS 578T breast = tested on: HS 578T breast
SN12C renal = tested on: SN12C renal
SW-620 colon = tested on: SW-620 colon
HOP-62 NSCLC = tested on: HOP-62 NSCLC
OVCAR-5 ovarian = tested on: OVCAR-5 ovarian
TK-10 renal = tested on: TK-10 renal
T-47D breast = tested on: T-47D breast
LOX IMVI melanoma = tested on: LOX IMVI melanoma
UO-31 renal = tested on: UO-31 renal
HL-60(TB) leukemia = tested on: HL-60(TB) leukemia
HCC-2998 colon = tested on: HCC-2998 colon
M14 melanoma = tested on: M14 melanoma
MDA-MB-231 breast = tested on: MDA-MB-231 breast
SK-MEL-2 melanoma = tested on: SK-MEL-2 melanoma
HOP-92 NSCLC = tested on: HOP-92 NSCLC
A498 renal = tested on: A498 renal
SF-295 CNS = tested on: SF-295 CNS
OVCAR-3 ovarian = tested on: OVCAR-3 ovarian
CCRF-CEM leukemia = tested on: CCRF-CEM leukemia
K-562 leukemia = tested on: K-562 leukemia
SNB-19 CNS = tested on: SNB-19 CNS
COLO 205 colon = tested on: COLO 205 colon
NCI-H522 lung = tested on: NCI-H522 lung
CAKI-1 renal = tested on: CAKI-1 renal
SK-MEL-5 melanoma = tested on: SK-MEL-5 melanoma
SK-OV-3 ovarian = tested on: SK-OV-3 ovarian
MCF7 breast = tested on: MCF7 breast
SR leukemia = tested on: SR leukemia
ACHN renal = tested on: ACHN renal
UACC-62 melanoma = tested on: UACC-62 melanoma
786-0 renal = tested on: 786-0 renal
HCT-116 colon = tested on: HCT-116 colon
RXF 393 renal = tested on: RXF 393 renal
SK-MEL-28 melanoma = tested on: SK-MEL-28 melanoma
U251 CNS = tested on: U251 CNS
NCI/ADR-RES ovarian = tested on: NCI/ADR-RES ovarian
KM12 colon = tested on: KM12 colon
IGROV1 ovarian = tested on: IGROV1 ovarian
DU-145 prostate = tested on: DU-145 prostate
SF-539 CNS = tested on: SF-539 CNS
MDA-MB-435 = tested on: MDA-MB-435
RPMI-8226 leukemia = tested on: RPMI-8226 leukemia
NCI-H460 lung = tested on: NCI-H460 lung
UACC-257 melanoma = tested on: UACC-257 melanoma
SNB-75 CNS = tested on: SNB-75 CNS
HT29 colon = tested on: HT29 colon
OVCAR-4 ovarian = tested on: OVCAR-4 ovarian
NCI-H226 lung = tested on: NCI-H226 lung
BT-549 breast = tested on: BT-549 breast

`O=C(O)c1cccc(NC(C(=O)c2ccccc2)c2ccccc2)c1` (centres undefined) was tested, and the TGI (A549 NSCLC) was greater than 100 µM, the TGI (OVCAR-8 ovarian) was greater than 100 µM and the TGI (MOLT-4 leukemia) was greater than 100 µM. It also gave a TGI (PC-3 prostate) greater than 100 µM, a TGI (MDA-N) greater than 100 µM and a TGI (NCI-H23 lung) greater than 100 µM. For the same molecule, the TGI (SF-268 CNS) was greater than 100 µM, the TGI (HCT-15 colon) was greater than 100 µM and the TGI (MALME-3M melanoma) was greater than 100 µM. The TGI (EKVX NSCLC) was greater than 100 µM, the TGI (HS 578T breast) was 80.6 µM and the TGI (SN12C renal) was greater than 100 µM. It also gave a TGI (SW-620 colon) greater than 100 µM, a TGI (HOP-62 NSCLC) greater than 100 µM and a TGI (OVCAR-5 ovarian) greater than 100 µM. The TGI (TK-10 renal) was greater than 100 µM, the TGI (T-47D breast) was greater than 100 µM and the TGI (LOX IMVI melanoma) was greater than 100 µM. For the same molecule, the TGI (UO-31 renal) was greater than 100 µM, the TGI (HL-60(TB) leukemia) was greater than 100 µM and the TGI (HCC-2998 colon) was greater than 100 µM. For the same molecule, the TGI (M14 melanoma) was greater than 100 µM, the TGI (MDA-MB-231 breast) was greater than 100 µM and the TGI (SK-MEL-2 melanoma) was greater than 100 µM. The TGI (HOP-92 NSCLC) was greater than 100 µM, the TGI (A498 renal) was greater than 100 µM and the TGI (SF-295 CNS) was greater than 100 µM. It also gave a TGI (OVCAR-3 ovarian) greater than 100 µM, a TGI (CCRF-CEM leukemia) greater than 100 µM and a TGI (K-562 leukemia) greater than 100 µM. For the same molecule, the TGI (SNB-19 CNS) was greater than 100 µM, the TGI (COLO 205 colon) was greater than 100 µM and the TGI (NCI-H522 lung) was greater than 100 µM. It also gave a TGI (CAKI-1 renal) greater than 100 µM, a TGI (SK-MEL-5 melanoma) greater than 100 µM and a TGI (SK-OV-3 ovarian) greater than 100 µM. It also gave a TGI (MCF7 breast) greater than 100 µM, a TGI (SR leukemia) greater than 100 µM and a TGI (ACHN renal) greater than 100 µM. For the same molecule, the TGI (UACC-62 melanoma) was greater than 100 µM, the TGI (786-0 renal) was greater than 100 µM and the TGI (HCT-116 colon) was greater than 100 µM. For the same molecule, the TGI (RXF 393 renal) was greater than 100 µM, the TGI (SK-MEL-28 melanoma) was greater than 100 µM and the TGI (U251 CNS) was greater than 100 µM. It also gave a TGI (NCI/ADR-RES ovarian) greater than 100 µM, a TGI (KM12 colon) greater than 100 µM and a TGI (IGROV1 ovarian) greater than 100 µM. For the same molecule, the TGI (DU-145 prostate) was greater than 100 µM, the TGI (SF-539 CNS) was greater than 100 µM and the TGI (MDA-MB-435) was greater than 100 µM. The TGI (RPMI-8226 leukemia) was greater than 100 µM and the TGI (NCI-H460 lung) was greater than 100 µM.

`C=C1CC(C)(c2cccc(Nc3nc4ccccc4c4occc34)c2)OC1=O` (centres undefined) gave a TGI (UACC-257 melanoma) of 3.47 µM, a TGI (A549 NSCLC) of 46.3 µM and a TGI (OVCAR-8 ovarian) of 21.3 µM. The TGI (MOLT-4 leukemia) was greater than 100 µM, the TGI (PC-3 prostate) was 21.9 µM and the TGI (SNB-75 CNS) was 18.3 µM. The TGI (MDA-N) was 18.3 µM, the TGI (SF-268 CNS) was 29.1 µM and the TGI (HCT-15 colon) was 17.4 µM. For the same molecule, the TGI (MALME-3M melanoma) was 39.1 µM, the TGI (EKVX NSCLC) was 27.9 µM and the TGI (HS 578T breast) was 9.16 µM. It also gave a TGI (SN12C renal) of 7.75 µM, a TGI (HOP-62 NSCLC) of 25.9 µM and a TGI (OVCAR-5 ovarian) of 31.7 µM. The TGI (TK-10 renal) was 9.99 µM, the TGI (T-47D breast) was 20.5 µM and the TGI (HT29 colon) was 16.6 µM. It also gave a TGI (UO-31 renal) of 5.04 µM, a TGI (HL-60(TB) leukemia) of 5.38 µM and a TGI (HCC-2998 colon) of 5.84 µM. The TGI (M14 melanoma) was 7.26 µM, the TGI (MDA-MB-231 breast) was 23.1 µM and the TGI (HOP-92 NSCLC) was 7.29 µM. It also gave a TGI (A498 renal) of 32.1 µM, a TGI (SF-295 CNS) of 34.9 µM and a TGI (OVCAR-3 ovarian) of 17.5 µM. It also gave a TGI (OVCAR-4 ovarian) of 20.4 µM, a TGI (CCRF-CEM leukemia) of 5.08 µM and a TGI (SNB-19 CNS) of 59.4 µM. It also gave a TGI (NCI-H226 lung) of 4.54 µM, a TGI (COLO 205 colon) of 17.6 µM and a TGI (BT-549 breast) of 17.4 µM. The TGI (CAKI-1 renal) was 16.7 µM, the TGI (SK-MEL-5 melanoma) was 28.3 µM and the TGI (SK-OV-3 ovarian) was 27.2 µM. It also gave a TGI (MCF7 breast) of 16.4 µM, a TGI (ACHN renal) of 19.6 µM and a TGI (UACC-62 melanoma) of 2.43 µM. It also gave a TGI (786-0 renal) of 3.08 µM, a TGI (HCT-116 colon) of 3.1 µM and a TGI (RXF 393 renal) of 6.02 µM. It also gave a TGI (SK-MEL-28 melanoma) of 26.8 µM, a TGI (U251 CNS) greater than 100 µM and a TGI (NCI/ADR-RES ovarian) of 26.8 µM. For the same molecule, the TGI (KM12 colon) was 43.8 µM, the TGI (DU-145 prostate) was 19.9 µM and the TGI (SF-539 CNS) was 3.47 µM. The TGI (MDA-MB-435) was 21.8 µM, the TGI (RPMI-8226 leukemia) was 4.62 µM and the TGI (NCI-H460 lung) was 33.8 µM.
